As a reminder, the MIC is the least concentration at which growth counts as inhibited. In general, EC50 refers to the concentration needed to bring the measured effect to its halfway point. A low value points to a more potent agent.

The subject of test [1] is Staphylococcus aureus. The experiment in a line: Antimicrobial activity against methicillin-sensitive Staphylococcus aureus after 14 to 16 hrs. In kind it is functional.
For test [2], the system named is Staphylococcus aureus. The experiment in a line: Antimicrobial activity against methicillin-resistant Staphylococcus aureus after 14 to 16 hrs. In kind it is functional.
In test [3] the test system is Streptococcus pneumoniae. In words: Antimicrobial activity against penicillin-sensitive Streptococcus pneumoniae after 14 to 16 hrs. In kind it is functional.
For test [4], the system named is Streptococcus pneumoniae. In words: Antimicrobial activity against penicillin-resistant Streptococcus pneumoniae after 14 to 16 hrs. In kind it is functional.
The subject of the next test is Enterococcus faecalis. In words: Antimicrobial activity against vancomycin-sensitive Enterococcus faecalis after 14 to 16 hrs. It is filed as functional.
For a further test, the system named is Enterococcus faecium. The experiment in a line: Antimicrobial activity against vancomycin-resistant Enterococcus faecium after 14 to 16 hrs. In kind it is functional.
A further test deals with Escherichia coli. The experiment in a line: Antimicrobial activity against Escherichia coli after 14 to 16 hrs. It is filed as functional.
In another test the test system is B16-F10. In words: Cytotoxicity against mouse B16F10 cells after 3 to 6 hrs. It is filed as functional, cell-based.

In brackets after ≈: the same amount, converted by molar mass.

With `COC(CC(C)C(O)/C=C/C=C/CNC(=O)C(C)(C)C(O)\C(C)=C/C=C\C=C\C(C)=C(/C)[N+](=O)[O-])C1(O)C(C)C(=O)N(C)C12C(=O)OC2C` (stereo not drawn) [LAJOLLAMYCIN], the MIC was determined as 4 µg/mL (≈ 5.82 µM) against Staphylococcus aureus [1]; 5 µg/mL (≈ 7.27 µM) in the test on Staphylococcus aureus [2]; 2 µg/mL (≈ 2.91 µM) against Streptococcus pneumoniae [3]; 1.5 µg/mL (≈ 2.18 µM) with Streptococcus pneumoniae [4]; 14 µg/mL (≈ 20.4 µM) in the test with Enterococcus faecalis; 20 µg/mL (≈ 29.1 µM) in the test on Enterococcus faecium. The same compound had an MIC in the test on Escherichia coli of 12 µg/mL (≈ 17.4 µM). Further, in the test on B16-F10, the EC50 worked out at 9.6 µM.
